The text below walks through data of publication PMC8588310, “Identification and Preliminary Structure-Activity Relationship Studies of 1,5-Dihydrobenzo[e][1,4]oxazepin-2(3H)-ones That Induce Differentiation of Acute Myeloid Leukemia Cells In Vitro” (Molecules, 2021).

In series [1] the test system is OCI-AML3 cells. Put plainly: CD11b expression assay by flow cytometry in OCI-AML3 cells. Type of series: cell-based. As to conditions: Homo sapiens, OCI-AML-3, 96 h, 4-day treatment, resynthesised sample. The method, then:
(§1) Cells were treated with 1000 structurally diverse small molecules selected from a commercial library. A single point testing concentration of 10 µM was used. After 4 days, cells were stained with a CD11b antibody and analysed using flow cytometry. Compounds upregulating CD11b expression greater than 10% in at least three of the cell lines were considered as potential hits. Hit confirmation was undertaken as follows: first, the hit was re-tested at 10 µM both with the CD11b antibody and an isotype control to account for nonspecific binding. Secondly, the effect of the hit on cell proliferation and viability was evaluated through staining with DAPI to evaluate the number of dead cells, and with acridine orange to detect total cell numbers. Thirdly, the induction of differentiation caused by the compounds was confirmed through morphology assessment with Giemsa staining. Finally, the molecule was resynthesised and fully characterised to confirm structural authenticity. This fresh sample was then retested in the CD11b assay to generate a concentration-response curve. […]
(§2) PE mouse-anti-human-CD11b/Mac-1 (ICRF44, Cat 555388) and PE-mouse-IgG1-κ-isotype control (MOPC-21, Cat 555749) were purchased from BD Bioscience. […] Flow cytometry data were collected on an Attune NxT and analysed using the Attune NxT software (Life Technologies).
(In general: A flow cytometer gives signals particle by particle.)

A short description of series [2]: Semi-thermodynamic aqueous solubility. The class given is physicochemical. To be noted: aqueous (buffer or water not specified), thermodynamic from solid. The method, then:
(§3) Determination of semi-thermodynamic solubility, metabolic stability in S9 fraction, Caco-2 permeability and PPB were performed by Cyprotex Ltd. (www.cyprotex.com, accessed on 22 October 2021) using their standard assays and as described on their website.

The subject of series [3] is HL-60 cells. Briefly: CD11b expression assay by flow cytometry in HL-60 cells. Type of series: cell-based, human. The method, then: (§4) Cells were treated with 1000 structurally diverse small molecules selected from a commercial library. A single point testing concentration of 10 µM was used. After 4 days, cells were stained with a CD11b antibody and analysed using flow cytometry. Compounds upregulating CD11b expression greater than 10% in at least three of the cell lines were considered as potential hits. Hit confirmation was undertaken as follows: first, the hit was re-tested at 10 µM both with the CD11b antibody and an isotype control to account for nonspecific binding. Secondly, the effect of the hit on cell proliferation and viability was evaluated through staining with DAPI to evaluate the number of dead cells, and with acridine orange to detect total cell numbers. Thirdly, the induction of differentiation caused by the compounds was confirmed through morphology assessment with Giemsa staining. Finally, the molecule was resynthesised and fully characterised to confirm structural authenticity. This fresh sample was then retested in the CD11b assay to generate a concentration-response curve. The study of proliferation and morphology was performed on a panel of six cell lines: HL-60, THP-1, OCI-AML3, KG-1, Kasumi-1 and ME-1.
Thus, structure-activity relationship studies were initiated, where the potency of the new analogues was evaluated through concentration-response testing using the CD11b assay in HL-60 cells. Lipophilic efficiency (LipE), which also accounts for lipophilicity, was also used to compare the quality of the analogues. Even though multiple parameters can influence activity in a cell-based assay, LipE is a useful guide to compare analogues.
PE mouse-anti-human-CD11b/Mac-1 (ICRF44, Cat 555388) and PE-mouse-IgG1-κ-isotype control (MOPC-21, Cat 555749) were purchased from BD Bioscience. Cells were suspended in 100 μL growth media (RPMI + 10% FBS + 1% L-glutamine) at a density of 2 × 10^4 cells/well of a V-bottom 96 well plate (Corning, Cat 3894) and grown for 96 h in the presence of compound at the required concentration. After 96 h, the plate was centrifuged, media was removed, and cells were resuspended in 50 µL of blocking buffer (IMDM, no phenol red + 10% FBS) containing 2.5 μL of either CD11b or isotype control antibody and incubated on ice in the dark for 20 min. Cells were washed twice in 200 μL of staining buffer (IMDM, no phenol red + 1% FBS) before being resuspended in 200 μL of staining buffer containing 1 μg/mL of DAPI to help identify dead cells. Flow cytometry data were collected on an Attune NxT and analysed using the Attune NxT software (Life Technologies).

Series [4] has as its system HL-60, THP-1, OCI-AML3, KG-1, Kasumi-1 and ME-1. Put plainly: Morphology assessment of stained cytospins. To be noted: 10 µM, 4-day treatment, six cell lines. Type of series: cell-based, human. The method, then: as §4
Cells were prepared in staining buffer (IMDM, no phenol red + 2% FBS) at a concentration of approximately 1 × 10^5 cells/mL. […]

Series [5] has the same test system. Put plainly: Cell counts and viability (acridine orange / DAPI). Type of series: cell-based, human. As to conditions: 10 µM, 4 days. The method, then:
as §1
Solution 13 containing acridin orange and DAPI was purchased from ChemoMetec (Cat 910-3013). After the appropriate cell treatment, one volume of solution 13 was added into 19 volumes of the premixed cell suspension and analysed using the NucleoCounter® NC-300^TM (ChemoMetec).

Series [6] can be described thus: Metabolic stability in mouse S9 fraction. Type of series: in vitro ADME. As to conditions: ER = Clint/species flow rate (mice: 90 mL/min/kg). Here is the method:
as §3
[22] Extraction ratio (ER) is calculated as the measured intrinsic clearance over the hepatic blood flow of each species (90 mL/min/kg for mice). It has the advantage over other parameters (half-life, clearance) that it is independent of the species used

The test system of series [7] is THP-1 cells. Put plainly: CD11b expression assay by flow cytometry in THP-1 cells. The class given is cell-based. As to conditions: Homo sapiens, 96 h, 4-day treatment, resynthesised sample. Here is the method:
as §1, §2

Molecules are shown by their SMILES.

In general, EC50 refers to the concentration needed to bring the measured effect to its halfway point. For orientation: thermodynamic solubility means the concentration in solution at equilibrium with solid. On to `CS(=O)(=O)Nc1cccc(-c2ccc3c(c2)N(CC2CC2)C(=O)COC3)c1` [OXS003976, N-(3-(1-(Cyclopropylmethyl)-2-oxo-1,2,3,5-tetrahydrobenzo[e][1,4]oxazepin-8-yl)phenyl)methanesulfonamide], for which the concentration for a half-maximal effect (EC50) stood at 950 nM in series [1]; 770 nM in series [3] (Homo sapiens, HL-60, 96 h, HL-60 cells, 4-day (96 h) treatment, CD11b upregulation, read-out: EC50 [nM], %CD11b response in HL60 cells); 3400 nM in series [7]. Also, the solubility (thermodynamic) in series [2] was more than 200 µM. Further, the “CD11b expression vs isotype control” value in series [3] (10 µM, 4-day treatment, HL-60 cells) is on record as “upregulated CD11b expression, but not the isotype control”. The “LipE (lipophilic efficiency)” value in series [3] (LipE = -LogEC50-cLogP, EC50 of CD11b assay in HL-60) worked out at 4.3. Further, the “Cell morphology” value in series [4] is “induced morphological changes consistent with differentiation”. Besides, in series [5], the “Cell proliferation and viability” value was “decreased cell proliferation and viability”. The “ER in mS9 (extraction ratio)” value in series [6] came to 0.54.
